The text below walks through data of PubChem BioAssay (NCI).

Some test systems named below: A498 renal; BT-549 breast; HCC-2998 colon; HL-60(TB) leukemia; IGROV1 ovarian; MOLT-4 leukemia; NCI-H23 lung; OVCAR-3 ovarian; SF-295 CNS; TK-10 renal.
Assay in all cases: NCI anticancer screen, dose series, 48 h

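48-hour exposure; five concentrations; linearly interpolated endpoints. TGI denotes the concentration required for complete inhibition of growth.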

On to `CCN(CC)c1ccc2c(c1)Oc1ccc(N(C(C)=O)c3ccccc3)cc1C21OC(=O)c2ccccc21` (stereo not given), for which the TGI was > 100 µM in the assay with A498 renal; > 100 µM with BT-549 breast; > 100 µM in the assay on HCC-2998 colon; 97.6 µM with HL-60(TB) leukemia; > 100 µM in the assay with IGROV1 ovarian; > 100 µM with MOLT-4 leukemia. For the same molecule, the TGI in the assay on NCI-H23 lung, in the assay on OVCAR-3 ovarian, in the assay with SF-295 CNS and with TK-10 renal was > 100 µM throughout.
On to `CC(/C=N/N(C)C1=NCCCCN1)=N/N(C)C1=NCCCCN1`, for which the TGI in the assay on A498 renal, in the assay on BT-549 breast, in the assay with HCC-2998 colon, in the assay on HL-60(TB) leukemia, in the assay on IGROV1 ovarian and with MOLT-4 leukemia was > 100 µM throughout. For the same molecule, the TGI in the assay on NCI-H23 lung, in the assay with OVCAR-3 ovarian, in the assay with SF-295 CNS and in the assay with TK-10 renal was > 100 µM each time.
`CC(=O)[C@H]1CC[C@H]2[C@@H]3CCC4=CC(=O)CC[C@]4(C)[C@H]3CC[C@]12C`: the TGI in the assay on A498 renal amounted to 67.1 µM; with BT-549 breast it was 32.1 µM; in the assay with HCC-2998 colon, 31.4 µM; in the assay on HL-60(TB) leukemia, 87.1 µM; in the assay with IGROV1 ovarian it was 71.4 µM; with MOLT-4 leukemia, 35.2 µM. For the same molecule, the TGI was found to be 35.7 µM with NCI-H23 lung, 35 µM in the assay with OVCAR-3 ovarian, 76 µM in the assay with SF-295 CNS and 52.2 µM with TK-10 renal.
For `O=c1[nH]nc(-c2ccc([N+](=O)[O-])cc2)n1/N=C/c1ccc([N+](=O)[O-])cc1`, the TGI in the assay on A498 renal, with BT-549 breast, in the assay with HCC-2998 colon, in the assay on HL-60(TB) leukemia, in the assay with IGROV1 ovarian and with MOLT-4 leukemia was > 100 µM each time. Besides, the TGI in the assay on NCI-H23 lung, with OVCAR-3 ovarian, in the assay on SF-295 CNS and with TK-10 renal was > 100 µM throughout.
In the case of `Fc1ccc(C2NC(=S)NC3=C2CCOc2c3ccc3ccccc23)cc1` (stereo not given), the TGI in the assay on A498 renal is 79.5 µM; in the assay with BT-549 breast it was > 100 µM; in the assay with HCC-2998 colon, 69.1 µM; with HL-60(TB) leukemia, > 100 µM; in the assay with IGROV1 ovarian it was > 100 µM; with MOLT-4 leukemia, > 100 µM. Also, the TGI in the assay on NCI-H23 lung, in the assay on OVCAR-3 ovarian, in the assay on SF-295 CNS and with TK-10 renal was > 100 µM each time.
Take `CCOP(=O)(CC1CC(O)(CNc2cc(Cl)nc(N)n2)C1)OCC` (stereo not given): the TGI in the assay with A498 renal, with BT-549 breast, in the assay with HCC-2998 colon, in the assay with HL-60(TB) leukemia, with IGROV1 ovarian and with MOLT-4 leukemia was > 100 µM each time. Moreover, the TGI in the assay on NCI-H23 lung, in the assay with OVCAR-3 ovarian, with SF-295 CNS and in the assay on TK-10 renal was > 100 µM in each case.
`OC12C3C4CC5C(C4[C@@H]1Br)C2[C@@](O)(c1c(F)c(F)c(F)c(F)c1F)C53` (stereo not given in full): the TGI in the assay on A498 renal, with BT-549 breast, in the assay with HCC-2998 colon, in the assay with HL-60(TB) leukemia, with IGROV1 ovarian and with MOLT-4 leukemia was > 100 µM each time. The TGI in the assay on NCI-H23 lung was > 100 µM; with OVCAR-3 ovarian, 65.8 µM; with SF-295 CNS, 76.8 µM; in the assay with TK-10 renal, > 100 µM.
As to `O=c1c2ncn(C3CCCCO3)c2n(-c2ccccc2)c(=S)n1-c1ccccc1` (stereo not given), the TGI in the assay on A498 renal was 89.6 µM; with BT-549 breast, 72.1 µM; in the assay with HCC-2998 colon, > 100 µM; with HL-60(TB) leukemia it was > 100 µM; with IGROV1 ovarian, 69.2 µM; in the assay on MOLT-4 leukemia, > 100 µM. The TGI in the assay on NCI-H23 lung is 64.3 µM; in the assay with OVCAR-3 ovarian, > 81.3 µM; in the assay with SF-295 CNS, 51.7 µM; in the assay on TK-10 renal it was 83 µM.
As for `O=c1[nH]nc(Cc2ccccc2)n1/N=C/c1ccc([N+](=O)[O-])o1`, the TGI with A498 renal was 23.1 µM; with BT-549 breast, 1.7 µM; in the assay on HCC-2998 colon, 71.6 µM; in the assay with HL-60(TB) leukemia it was > 100 µM; in the assay with IGROV1 ovarian it was 15.7 µM; in the assay on MOLT-4 leukemia, > 100 µM. Moreover, the TGI in the assay on NCI-H23 lung stood at 74.8 µM; with OVCAR-3 ovarian, 29.8 µM; in the assay on SF-295 CNS it was 36.2 µM; with TK-10 renal it was 17.6 µM.
For the molecule `c1ccc2c(c1)nc1n2CCNC1`, the TGI with A498 renal, with BT-549 breast, in the assay with HCC-2998 colon, with HL-60(TB) leukemia, in the assay with IGROV1 ovarian and in the assay on MOLT-4 leukemia was > 100 µM throughout. Moreover, the TGI in the assay with NCI-H23 lung, with OVCAR-3 ovarian, in the assay on SF-295 CNS and in the assay on TK-10 renal was > 100 µM in each case.
`Cc1ccc(S(=O)(=O)Nc2nc3ccccc3c(=O)n2C2CCCCC2)cc1`: the TGI in the assay on A498 renal, with BT-549 breast, with HCC-2998 colon, in the assay on HL-60(TB) leukemia, in the assay with IGROV1 ovarian and with MOLT-4 leukemia was > 100 µM throughout. The TGI in the assay on NCI-H23 lung, in the assay on OVCAR-3 ovarian, in the assay on SF-295 CNS and in the assay on TK-10 renal was > 100 µM throughout.
For `COc1ccc(-c2cc(C3CC3)nc(SCC(=O)O)c2C#N)cc1`, the TGI with A498 renal, with BT-549 breast, in the assay with HCC-2998 colon, in the assay on HL-60(TB) leukemia, with IGROV1 ovarian and in the assay with MOLT-4 leukemia was > 100 µM in each case. Besides, the TGI in the assay on NCI-H23 lung, in the assay on OVCAR-3 ovarian, with SF-295 CNS and in the assay with TK-10 renal was > 100 µM each time.
On to `Cc1ccc(C(=O)Cc2nc3ncccc3[nH]c2=O)cc1`, for which the TGI was > 100 µM in the assay with A498 renal; 92.5 µM with BT-549 breast; > 100 µM with HCC-2998 colon; > 100 µM in the assay with HL-60(TB) leukemia; > 100 µM with IGROV1 ovarian; > 100 µM in the assay with MOLT-4 leukemia. Moreover, the TGI was 42.3 µM with NCI-H23 lung, > 100 µM in the assay with OVCAR-3 ovarian, > 100 µM with SF-295 CNS and 57.4 µM with TK-10 renal.
As for `c1ccc2c(c1)CCN(C1=NCCO1)C2`, the TGI in the assay on A498 renal, in the assay on BT-549 breast, in the assay with HCC-2998 colon, with HL-60(TB) leukemia, in the assay with IGROV1 ovarian and in the assay with MOLT-4 leukemia was > 10 µM throughout. For the same molecule, the TGI with NCI-H23 lung, in the assay with OVCAR-3 ovarian, in the assay on SF-295 CNS and in the assay on TK-10 renal was > 10 µM throughout.
For the molecule `CN(C)c1ccc(/C=N/n2c(-c3ccccc3)nc3ccccc3c2=O)cc1`, the TGI with A498 renal, with BT-549 breast, in the assay on HCC-2998 colon, in the assay on HL-60(TB) leukemia, with IGROV1 ovarian and in the assay with MOLT-4 leukemia was > 100 µM each time. Further, the TGI in the assay on NCI-H23 lung, in the assay on OVCAR-3 ovarian, in the assay with SF-295 CNS and with TK-10 renal was > 100 µM in each case.
